The values that follow come from paper PMC6222927, “Aminobenzosuberone Scaffold as a Modular Chemical Tool for the Inhibition of Therapeutically Relevant M1 Aminopeptidases” (Molecules : A Journal of Synthetic Chemistry and Natural …, 2018).

The target in data set [1] is aminopeptidase from A. proteolytica (AAP). The arrangement: method as in PMID 21843945. As to conditions: ref 58; cited from earlier work.
The target of data set [2] is T1, human endoplasmic reticulum aminopeptidase 2 (rHsERAP2) (Homo sapiens, UniProt Q6P179).
T1 construct: made in house; host or cells: Hi5 insect cells (baculovirus produced in sf9)
Nature of the data set: rHsERAP2 inhibition, R-AMC fluorigenic substrate. The following applies: 50 µM R-AMC. The format is biochemical. As to the method: (§1) The enzymatic activity of HsERAP1, HsERAP2 and HsIRAP was determined by following the time-dependent increase in fluorescence at 460 nm (excitation: 380 nm) of the fluorigenic substrates L-Leucine-7-amido-4-methyl coumarin (L-AMC; Sigma, Darmstatd, Germany) for HsERAP1 and HsIRAP and L-arginyl-7-amido-4-methyl coumarin (R-AMC; Sigma) for HsERAP2. […] The reaction was followed for 10 min at room temperature and the remaining enzymatic activity was calculated by measuring the slope of the time course.

Data set [3] deals with T2, human Leucyl-cystinyl aminopeptidase (rHsIRAP) (Homo sapiens, UniProt Q9UIQ6).
T2 construct: made in house; host or cells: Hi5 insect cells (baculovirus produced in sf9)
Nature of the data set: rHsIRAP inhibition, L-AMC fluorigenic substrate. The data set is classed as biochemical. The following applies: 50 µM L-AMC; read-out: IC50 rHsIRAP. As to the method:
The enzymatic activity of HsERAP1, HsERAP2 and HsIRAP was determined by following the time-dependent increase in fluorescence at 460 nm (excitation: 380 nm) of the fluorigenic substrates L-Leucine-7-amido-4-methyl coumarin (L-AMC; Sigma, Darmstatd, Germany) for HsERAP1 and HsIRAP and L-arginyl-7-amido-4-methyl coumarin (R-AMC; Sigma) for HsERAP2. […]. The reaction was followed for 10 min at room temperature and the remaining enzymatic activity was calculated by measuring the slope of the time course. […]

In data set [4] the target is T3, human endoplasmic reticulum aminopeptidase 1 (rHsERAP1) (Homo sapiens, UniProt Q9NZ08).
T3 construct: made in house; host or cells: Hi5 insect cells (baculovirus produced in sf9)
Nature of the data set: rHsERAP1 inhibition, L-AMC fluorigenic substrate. The format is biochemical. As to conditions: 50 µM L-AMC. As to the method:
as §1

In data set [5] the target is human puromycine sensitive aminopeptidase (rHsPSA) (Homo sapiens, UniProt P55786). Put plainly: rHsPSA inhibition, Leu-pNA substrate, Dixon method. The format is biochemical. The following applies: triplicate, SD. As to the method:
Enzyme activity assays were carried out in 10 mM Tris-HCl buffer at pH 7.5 with 150 mM NaCl, enzyme, 100 µM substrate (Leu-pNA) in a 100 μL reaction at 37 °C. The absorbance was read at 405 nm. Concentrations ranging from 1 nM to 100 μM of inhibitors (dissolved in DMSO) were incubated with each of the enzymes ([…]) for 30 min at 37 °C in a 96 well plate. After addition of the substrate, immediate increase in absorption was measured. All inhibition assays were performed in triplicates and initial velocities were measured. Percentage inhibition and log values of inhibitor concentrations were plotted using SigmaPlot to determine IC50 values. Ki values were determined by the Dixon method. The assay consists of reaction buffer, enzyme and varied concentrations of Leu-pNA (25, 50, 100, 200 and 400 µM). […]. All the reactions were performed in triplicates, SD values were reported.

The nature of data set [6]: Octanol/water partition coefficient (logD7.4) by reversed-phase HPLC. As to conditions: pH 7.4.
The target in a further data set is T4, P. falciparum rPfAM1 (Plasmodium falciparum, UniProt O96935).
T4 construct: made in house; host or cells: Escherichia coli Rosetta 2 (DE3)
T4 sequence (O96935 1-1085): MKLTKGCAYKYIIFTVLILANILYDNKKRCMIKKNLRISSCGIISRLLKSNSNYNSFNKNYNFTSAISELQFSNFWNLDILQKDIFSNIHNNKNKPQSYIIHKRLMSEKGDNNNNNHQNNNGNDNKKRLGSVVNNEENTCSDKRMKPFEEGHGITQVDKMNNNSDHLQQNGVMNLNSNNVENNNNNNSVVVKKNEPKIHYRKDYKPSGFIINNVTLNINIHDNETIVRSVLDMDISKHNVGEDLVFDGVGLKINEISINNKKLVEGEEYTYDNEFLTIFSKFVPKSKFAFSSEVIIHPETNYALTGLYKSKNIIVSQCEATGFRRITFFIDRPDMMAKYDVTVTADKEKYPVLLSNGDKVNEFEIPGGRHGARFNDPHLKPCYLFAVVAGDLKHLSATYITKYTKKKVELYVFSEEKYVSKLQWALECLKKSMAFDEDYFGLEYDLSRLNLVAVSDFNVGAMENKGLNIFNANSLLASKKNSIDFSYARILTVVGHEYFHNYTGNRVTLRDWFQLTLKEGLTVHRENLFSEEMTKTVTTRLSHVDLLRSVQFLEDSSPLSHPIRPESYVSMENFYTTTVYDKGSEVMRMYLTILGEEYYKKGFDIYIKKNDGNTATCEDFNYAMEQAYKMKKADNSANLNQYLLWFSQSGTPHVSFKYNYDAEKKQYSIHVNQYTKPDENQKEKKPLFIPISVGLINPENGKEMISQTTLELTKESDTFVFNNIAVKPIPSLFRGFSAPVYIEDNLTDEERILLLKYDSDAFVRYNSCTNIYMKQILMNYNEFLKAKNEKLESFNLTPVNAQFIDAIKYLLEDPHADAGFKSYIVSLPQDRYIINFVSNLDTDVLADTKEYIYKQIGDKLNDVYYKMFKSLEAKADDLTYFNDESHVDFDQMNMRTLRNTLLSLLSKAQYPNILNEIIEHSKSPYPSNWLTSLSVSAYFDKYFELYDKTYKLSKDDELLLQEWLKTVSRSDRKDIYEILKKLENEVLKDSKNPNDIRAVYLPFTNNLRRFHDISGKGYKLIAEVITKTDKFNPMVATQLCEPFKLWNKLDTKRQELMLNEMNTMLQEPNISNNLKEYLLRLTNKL
Put plainly: biochemical. The data set is classed as biochemical. As to the method: Initial velocities were measured with increasing concentrations of inhibitors and Ki values were determined by Dixon plots in triplicate.

T2 sequence (Q9UIQ6 155-1025 limits assumed): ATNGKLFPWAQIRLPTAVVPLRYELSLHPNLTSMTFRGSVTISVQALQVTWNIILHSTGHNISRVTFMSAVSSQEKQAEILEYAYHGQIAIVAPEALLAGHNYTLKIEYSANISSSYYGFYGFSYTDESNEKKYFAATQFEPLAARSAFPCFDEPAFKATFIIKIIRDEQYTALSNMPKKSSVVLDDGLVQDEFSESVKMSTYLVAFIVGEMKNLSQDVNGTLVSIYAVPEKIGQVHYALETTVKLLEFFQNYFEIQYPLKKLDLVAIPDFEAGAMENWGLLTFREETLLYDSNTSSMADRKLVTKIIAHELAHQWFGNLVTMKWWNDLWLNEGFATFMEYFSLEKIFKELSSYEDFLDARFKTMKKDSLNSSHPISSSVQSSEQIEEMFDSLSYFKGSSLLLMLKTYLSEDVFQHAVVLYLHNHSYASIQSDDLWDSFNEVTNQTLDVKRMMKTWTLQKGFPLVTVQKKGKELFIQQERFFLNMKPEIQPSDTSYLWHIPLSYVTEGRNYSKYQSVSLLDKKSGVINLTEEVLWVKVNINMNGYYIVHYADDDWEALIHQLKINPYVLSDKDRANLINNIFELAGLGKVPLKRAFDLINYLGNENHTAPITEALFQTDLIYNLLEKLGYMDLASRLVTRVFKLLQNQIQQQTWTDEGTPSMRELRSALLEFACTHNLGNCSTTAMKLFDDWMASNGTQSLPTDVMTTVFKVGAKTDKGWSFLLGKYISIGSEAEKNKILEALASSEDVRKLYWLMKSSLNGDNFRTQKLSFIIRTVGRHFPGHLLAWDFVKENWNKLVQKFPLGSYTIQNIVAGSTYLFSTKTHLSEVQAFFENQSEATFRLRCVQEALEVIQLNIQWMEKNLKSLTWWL
T1 sequence (Q6P179 whole entry): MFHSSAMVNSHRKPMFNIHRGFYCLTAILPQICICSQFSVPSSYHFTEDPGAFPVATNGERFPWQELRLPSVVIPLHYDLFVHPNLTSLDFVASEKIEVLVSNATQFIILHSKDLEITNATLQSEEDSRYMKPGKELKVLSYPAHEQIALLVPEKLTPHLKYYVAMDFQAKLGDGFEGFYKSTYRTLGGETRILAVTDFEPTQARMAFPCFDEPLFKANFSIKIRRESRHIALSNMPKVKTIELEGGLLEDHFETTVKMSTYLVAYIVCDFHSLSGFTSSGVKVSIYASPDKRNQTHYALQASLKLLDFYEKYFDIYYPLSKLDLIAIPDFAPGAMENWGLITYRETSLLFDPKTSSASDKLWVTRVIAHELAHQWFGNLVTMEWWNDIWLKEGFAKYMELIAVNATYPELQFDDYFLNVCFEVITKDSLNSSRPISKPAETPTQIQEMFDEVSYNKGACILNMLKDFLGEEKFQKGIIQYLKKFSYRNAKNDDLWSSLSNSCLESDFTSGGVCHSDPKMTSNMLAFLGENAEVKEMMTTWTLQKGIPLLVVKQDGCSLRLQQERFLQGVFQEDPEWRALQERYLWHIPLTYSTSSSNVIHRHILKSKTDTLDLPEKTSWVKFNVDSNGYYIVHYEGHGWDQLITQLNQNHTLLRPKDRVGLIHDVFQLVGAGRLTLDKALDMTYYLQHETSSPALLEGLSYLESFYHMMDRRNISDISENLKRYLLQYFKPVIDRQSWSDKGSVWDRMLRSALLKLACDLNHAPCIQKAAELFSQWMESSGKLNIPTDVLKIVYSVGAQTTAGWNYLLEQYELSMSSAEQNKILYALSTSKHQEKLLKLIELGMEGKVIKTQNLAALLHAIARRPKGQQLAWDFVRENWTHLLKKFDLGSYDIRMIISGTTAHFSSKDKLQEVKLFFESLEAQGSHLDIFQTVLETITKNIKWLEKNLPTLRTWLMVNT
T3 sequence (Q9NZ08 whole entry): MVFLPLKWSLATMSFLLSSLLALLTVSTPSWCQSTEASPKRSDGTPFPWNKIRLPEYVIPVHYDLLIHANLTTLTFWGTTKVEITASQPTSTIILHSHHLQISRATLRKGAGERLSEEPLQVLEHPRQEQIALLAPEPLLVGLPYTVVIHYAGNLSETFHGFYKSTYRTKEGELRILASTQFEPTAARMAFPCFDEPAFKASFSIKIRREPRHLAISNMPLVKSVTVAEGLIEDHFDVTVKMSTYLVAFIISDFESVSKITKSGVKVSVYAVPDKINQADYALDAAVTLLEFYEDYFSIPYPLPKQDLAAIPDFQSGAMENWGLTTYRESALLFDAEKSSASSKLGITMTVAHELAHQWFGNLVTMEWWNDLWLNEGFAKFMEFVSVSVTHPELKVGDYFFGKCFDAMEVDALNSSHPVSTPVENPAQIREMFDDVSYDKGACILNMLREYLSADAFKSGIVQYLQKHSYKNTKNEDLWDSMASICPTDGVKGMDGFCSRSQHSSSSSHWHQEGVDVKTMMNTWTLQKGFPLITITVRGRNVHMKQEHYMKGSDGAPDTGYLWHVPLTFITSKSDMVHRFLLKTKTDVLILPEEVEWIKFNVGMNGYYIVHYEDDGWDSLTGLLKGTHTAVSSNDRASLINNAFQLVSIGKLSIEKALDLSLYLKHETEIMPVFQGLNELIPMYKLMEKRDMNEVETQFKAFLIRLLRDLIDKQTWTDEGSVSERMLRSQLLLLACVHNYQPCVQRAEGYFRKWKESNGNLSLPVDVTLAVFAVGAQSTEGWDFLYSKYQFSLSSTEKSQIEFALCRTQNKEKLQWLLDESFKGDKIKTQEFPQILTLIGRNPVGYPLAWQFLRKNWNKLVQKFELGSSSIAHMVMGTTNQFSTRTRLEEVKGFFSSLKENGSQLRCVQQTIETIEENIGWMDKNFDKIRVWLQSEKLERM
Chain of human puromycine sensitive aminopeptidase (rHsPSA) (P55786 whole entry): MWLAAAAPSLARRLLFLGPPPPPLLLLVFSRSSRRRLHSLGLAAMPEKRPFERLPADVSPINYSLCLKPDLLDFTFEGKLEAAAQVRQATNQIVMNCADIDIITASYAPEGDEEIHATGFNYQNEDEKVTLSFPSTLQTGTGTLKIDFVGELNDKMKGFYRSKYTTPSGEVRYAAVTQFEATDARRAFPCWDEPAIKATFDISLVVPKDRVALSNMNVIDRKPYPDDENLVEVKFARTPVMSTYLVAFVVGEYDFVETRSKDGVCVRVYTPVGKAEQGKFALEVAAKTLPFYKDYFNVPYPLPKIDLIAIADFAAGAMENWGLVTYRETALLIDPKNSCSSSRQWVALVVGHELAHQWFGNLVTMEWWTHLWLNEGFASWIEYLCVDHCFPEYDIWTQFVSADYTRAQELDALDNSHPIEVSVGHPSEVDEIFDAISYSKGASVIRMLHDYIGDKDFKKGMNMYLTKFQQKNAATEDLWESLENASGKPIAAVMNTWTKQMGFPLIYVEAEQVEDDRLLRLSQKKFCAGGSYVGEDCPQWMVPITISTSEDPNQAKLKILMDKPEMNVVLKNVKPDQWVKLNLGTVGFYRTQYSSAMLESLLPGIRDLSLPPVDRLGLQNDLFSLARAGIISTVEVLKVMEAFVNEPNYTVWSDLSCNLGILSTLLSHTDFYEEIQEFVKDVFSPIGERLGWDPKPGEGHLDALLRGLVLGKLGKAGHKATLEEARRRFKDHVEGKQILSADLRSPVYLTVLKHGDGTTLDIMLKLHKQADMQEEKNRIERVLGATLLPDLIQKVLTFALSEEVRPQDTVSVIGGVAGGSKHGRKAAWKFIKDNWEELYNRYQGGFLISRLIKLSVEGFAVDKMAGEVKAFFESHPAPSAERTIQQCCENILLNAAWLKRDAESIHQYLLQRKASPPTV

With `NC1CCc2c(Br)cccc2CC1=O` (stereo not shown) [21e], the Ki in data set [1] was greater than 100000 nM; in data set [5] it was 1070 ± 63 nM; at P. falciparum rPfAM1 it was 1000 ± 40 nM. The results for the IC50 in data set [2], in data set [3] and in data set [4] were 104000 ± 7000 nM, 2600 ± 200 nM and 56000 ± 7000 nM, respectively. Moreover, the chromatographic logD in data set [6] is 1.41.

In general, Ki refers to a measure of affinity in units of concentration, obtained from inhibition or displacement. As usually defined, the IC50 is the point on the concentration scale where inhibition reaches its midpoint. In general, chromatographic logD refers to a lipophilicity value derived from retention on a column. Higher therefore signals a more lipophilic compound.
